Data taken from patent US9981959B2, “Thiazolyl and oxazolyl urea, thiourea, guanidine and cyanoguanidine compounds as TrkA kinase inhibitors” (Array BioPharma Inc., priority 2012, dated 2018).

Columns and labels:
Experiment in all cases: KinaseProfiler off-target kinase profiling
Type in all cases: biochemical
Conditions in all cases: 10 μM, ATP near Km
[1] = biological target: T1, IR (Homo sapiens, UniProt P06213)
T1 construct: purchased Millipore, Inc. (KinaseProfiler service)
Method in brief: (§1)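 Duplicate reactions containing 10 μM test compound used an ATP level near each kinase's Km. Remaining activity is reported relative to control (POC), averaged.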

[2] = biological target: T2, MAPKAP-K2 (Homo sapiens, UniProt P49137)
T2 construct: purchased Millipore, Inc. (KinaseProfiler service)
Method in brief: as §1

[3] = biological target: T3, CLK3 (Homo sapiens, UniProt P49761)
T3 construct: purchased Millipore, Inc. (KinaseProfiler service)
Method in brief: as §1

[4] = biological target: T4, PKCeta (Homo sapiens, UniProt P24723)
T4 construct: purchased Millipore, Inc. (KinaseProfiler service)
Method in brief: as §1

[5] = biological target: T5, PhKgamma2 (Homo sapiens, UniProt P15735)
T5 construct: purchased Millipore, Inc. (KinaseProfiler service)
Method in brief: as §1

[6] = biological target: T6, EGFR (Homo sapiens, UniProt P00533)
T6 construct: purchased Millipore, Inc. (KinaseProfiler service)
Method in brief: as §1

[7] = biological target: T7, EphA1 (Homo sapiens, UniProt P21709)
T7 construct: purchased Millipore, Inc. (KinaseProfiler service)
Method in brief: as §1

[8] = biological target: T8, GSK3alpha (Homo sapiens, UniProt P49840)
T8 construct: purchased Millipore, Inc. (KinaseProfiler service)
Method in brief: as §1

[9] = biological target: T9, CDK9/cyclinT1 (Homo sapiens, UniProt P50750)
T9 construct: purchased Millipore, Inc. (KinaseProfiler service)
Method in brief: as §1

[10] = biological target: T10, AURKA (Homo sapiens, UniProt O14965)
T10 construct: purchased Millipore (KinaseProfiler service)
Method in brief: as §1

[11] = biological target: T11, TSSK1 (Homo sapiens, UniProt Q9BXA7)
T11 construct: purchased Millipore, Inc. (KinaseProfiler service)
Method in brief: as §1

[12] = biological target: T12, ULK2 (Homo sapiens, UniProt Q8IYT8)
T12 construct: purchased Millipore, Inc. (KinaseProfiler service)
Method in brief: as §1

[13] = biological target: T13, Hck (Homo sapiens, UniProt P08631)
T13 construct: purchased Millipore, Inc. (KinaseProfiler service)
Method in brief: as §1

[14] = biological target: T14, MLK1 (Homo sapiens, UniProt P80192)
T14 construct: purchased Millipore, Inc. (KinaseProfiler service)
Method in brief: as §1

[15] = biological target: T15, CK1gamma1 (Homo sapiens, UniProt Q9HCP0)
T15 construct: purchased Millipore, Inc. (KinaseProfiler service)
Method in brief: as §1

[16] = biological target: T16, MKK7beta (Homo sapiens, UniProt O14733)
T16 construct: purchased Millipore, Inc. (KinaseProfiler service)
Method in brief: as §1

[17] = biological target: T17, AKT3 (Homo sapiens, UniProt Q9Y243)
T17 construct: purchased Millipore (KinaseProfiler service)
Method in brief: as §1

[18] = biological target: T18, CAMK1d (Homo sapiens, UniProt Q8IU85)
T18 construct: purchased Millipore (KinaseProfiler service)
Method in brief: as §1

[19] = biological target: T19, NLK (Homo sapiens, UniProt Q9UBE8)
T19 construct: purchased Millipore, Inc. (KinaseProfiler service)
Method in brief: as §1

[20] = biological target: T20, CAMK4 (Homo sapiens, UniProt Q16566)
T20 construct: purchased Millipore (KinaseProfiler service)
Method in brief: as §1

[21] = biological target: T21, CK1gamma3 (Homo sapiens, UniProt Q9Y6M4)
T21 construct: purchased Millipore, Inc. (KinaseProfiler service)
Method in brief: as §1

[22] = biological target: T22, NEK7 (Homo sapiens, UniProt Q8TDX7)
T22 construct: purchased Millipore, Inc. (KinaseProfiler service)
Method in brief: as §1

[23] = biological target: T23, AKT1 (Homo sapiens, UniProt P31749)
T23 construct: purchased Millipore (KinaseProfiler service)
Method in brief: as §1

[24] = biological target: T24, Axl (Homo sapiens, UniProt P30530)
T24 construct: purchased Millipore (KinaseProfiler service)
Method in brief: as §1

[25] = biological target: T25, WNK2 (Homo sapiens, UniProt Q9Y3S1)
T25 construct: purchased Millipore, Inc. (KinaseProfiler service)
Method in brief: as §1

[26] = biological target: T26, CDK6/cyclinD3 (Homo sapiens, UniProt Q00534)
T26 construct: purchased Millipore, Inc. (KinaseProfiler service)
Method in brief: as §1

[27] = biological target: T27, SGK1 (Homo sapiens, UniProt O00141, S422D)
T27 construct: purchased Millipore, Inc. (KinaseProfiler service)
Method in brief: as §1

[28] = biological target: T28, ROCK-II (Homo sapiens, UniProt O75116)
T28 construct: purchased Millipore, Inc. (KinaseProfiler service)
Method in brief: as §1

[29] = biological target: T29, PAK4 (Homo sapiens, UniProt O96013)
T29 construct: purchased Millipore, Inc. (KinaseProfiler service)
Method in brief: as §1

[30] = biological target: T30, EphA5 (Homo sapiens, UniProt P54756)
T30 construct: purchased Millipore, Inc. (KinaseProfiler service)
Method in brief: as §1

[31] = biological target: T31, EphB1 (Homo sapiens, UniProt P54762)
T31 construct: purchased Millipore, Inc. (KinaseProfiler service)
Method in brief: as §1

[32] = biological target: T32, VRK2 (Homo sapiens, UniProt Q86Y07)
T32 construct: purchased Millipore, Inc. (KinaseProfiler service)
Method in brief: as §1

[33] = biological target: T33, Fes (Homo sapiens, UniProt P07332)
T33 construct: purchased Millipore, Inc. (KinaseProfiler service)
Method in brief: as §1

[34] = biological target: T34, MSSK1 (Homo sapiens, UniProt Q9UPE1)
T34 construct: purchased Millipore, Inc. (KinaseProfiler service)
Method in brief: as §1

[35] = biological target: T35, SIK (Homo sapiens, UniProt P57059)
T35 construct: purchased Millipore, Inc. (KinaseProfiler service)
Method in brief: as §1

[36] = biological target: T36, ALK4 (Homo sapiens, UniProt P36896)
T36 construct: purchased Millipore (KinaseProfiler service)
Method in brief: as §1

[37] = biological target: T37, TBK1 (Homo sapiens, UniProt Q9UHD2)
T37 construct: purchased Millipore, Inc. (KinaseProfiler service)
Method in brief: as §1

[38] = biological target: T38, Flt3 (Homo sapiens, UniProt P36888)
T38 construct: purchased Millipore, Inc. (KinaseProfiler service)
Method in brief: as §1

[39] = biological target: T39, c-RAF (Homo sapiens, UniProt P04049, Y340D/Y341D)
T39 construct: purchased Millipore, Inc. (KinaseProfiler service)
Method in brief: as §1

[40] = biological target: T40, MST3 (Homo sapiens, UniProt Q9Y6E0)
T40 construct: purchased Millipore, Inc. (KinaseProfiler service)
Method in brief: as §1

[41] = biological target: T41, Rsk2 (Homo sapiens, UniProt P51812)
T41 construct: purchased Millipore, Inc. (KinaseProfiler service)
Method in brief: as §1

T24 sequence (P30530 26-894): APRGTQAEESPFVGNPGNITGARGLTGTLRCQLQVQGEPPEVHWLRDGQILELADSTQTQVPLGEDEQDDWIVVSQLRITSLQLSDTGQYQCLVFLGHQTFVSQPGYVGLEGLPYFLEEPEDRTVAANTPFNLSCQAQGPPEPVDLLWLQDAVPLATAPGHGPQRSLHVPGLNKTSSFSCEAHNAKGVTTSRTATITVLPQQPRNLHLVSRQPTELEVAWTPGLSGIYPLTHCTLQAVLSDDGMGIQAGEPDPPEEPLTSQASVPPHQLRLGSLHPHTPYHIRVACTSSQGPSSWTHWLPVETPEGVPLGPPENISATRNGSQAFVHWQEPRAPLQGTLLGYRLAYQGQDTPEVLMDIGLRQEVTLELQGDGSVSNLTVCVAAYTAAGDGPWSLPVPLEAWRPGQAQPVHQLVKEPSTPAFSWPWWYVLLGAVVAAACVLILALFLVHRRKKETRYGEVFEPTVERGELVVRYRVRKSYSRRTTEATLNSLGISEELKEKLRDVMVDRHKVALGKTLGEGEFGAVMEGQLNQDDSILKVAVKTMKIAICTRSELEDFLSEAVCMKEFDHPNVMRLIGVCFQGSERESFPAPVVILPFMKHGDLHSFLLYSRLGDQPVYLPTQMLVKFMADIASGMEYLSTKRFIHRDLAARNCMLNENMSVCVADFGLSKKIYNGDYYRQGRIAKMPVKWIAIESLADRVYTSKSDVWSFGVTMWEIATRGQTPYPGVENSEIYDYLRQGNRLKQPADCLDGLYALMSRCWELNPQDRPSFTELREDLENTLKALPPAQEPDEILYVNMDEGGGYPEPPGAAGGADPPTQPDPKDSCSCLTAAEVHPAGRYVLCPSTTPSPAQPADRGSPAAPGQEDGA
T12 sequence (Q8IYT8 whole entry): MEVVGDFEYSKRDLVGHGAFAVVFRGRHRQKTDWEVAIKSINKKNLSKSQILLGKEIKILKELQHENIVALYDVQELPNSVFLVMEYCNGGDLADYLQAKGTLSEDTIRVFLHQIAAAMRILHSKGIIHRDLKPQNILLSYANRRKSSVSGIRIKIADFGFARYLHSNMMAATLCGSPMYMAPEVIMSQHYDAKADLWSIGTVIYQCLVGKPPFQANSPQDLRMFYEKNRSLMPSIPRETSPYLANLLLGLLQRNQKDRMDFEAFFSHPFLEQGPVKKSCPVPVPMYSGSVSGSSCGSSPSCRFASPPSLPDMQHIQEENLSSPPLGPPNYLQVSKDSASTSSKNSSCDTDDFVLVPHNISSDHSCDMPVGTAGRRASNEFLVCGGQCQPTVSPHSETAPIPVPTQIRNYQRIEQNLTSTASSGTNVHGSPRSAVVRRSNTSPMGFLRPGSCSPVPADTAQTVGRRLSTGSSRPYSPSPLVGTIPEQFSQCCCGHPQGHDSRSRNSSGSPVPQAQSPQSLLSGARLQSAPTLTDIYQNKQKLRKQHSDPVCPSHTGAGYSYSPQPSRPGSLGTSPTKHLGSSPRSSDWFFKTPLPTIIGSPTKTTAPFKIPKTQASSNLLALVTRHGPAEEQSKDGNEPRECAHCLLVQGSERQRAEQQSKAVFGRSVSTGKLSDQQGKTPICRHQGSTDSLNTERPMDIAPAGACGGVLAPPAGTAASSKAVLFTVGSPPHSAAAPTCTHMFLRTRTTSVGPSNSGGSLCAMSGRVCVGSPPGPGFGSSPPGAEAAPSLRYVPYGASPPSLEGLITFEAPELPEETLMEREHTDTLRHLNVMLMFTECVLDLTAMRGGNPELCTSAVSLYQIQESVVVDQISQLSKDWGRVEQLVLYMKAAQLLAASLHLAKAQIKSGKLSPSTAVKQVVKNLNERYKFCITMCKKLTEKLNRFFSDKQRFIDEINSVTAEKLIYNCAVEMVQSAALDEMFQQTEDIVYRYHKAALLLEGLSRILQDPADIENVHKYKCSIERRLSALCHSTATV
T25 sequence (Q9Y3S1 whole entry): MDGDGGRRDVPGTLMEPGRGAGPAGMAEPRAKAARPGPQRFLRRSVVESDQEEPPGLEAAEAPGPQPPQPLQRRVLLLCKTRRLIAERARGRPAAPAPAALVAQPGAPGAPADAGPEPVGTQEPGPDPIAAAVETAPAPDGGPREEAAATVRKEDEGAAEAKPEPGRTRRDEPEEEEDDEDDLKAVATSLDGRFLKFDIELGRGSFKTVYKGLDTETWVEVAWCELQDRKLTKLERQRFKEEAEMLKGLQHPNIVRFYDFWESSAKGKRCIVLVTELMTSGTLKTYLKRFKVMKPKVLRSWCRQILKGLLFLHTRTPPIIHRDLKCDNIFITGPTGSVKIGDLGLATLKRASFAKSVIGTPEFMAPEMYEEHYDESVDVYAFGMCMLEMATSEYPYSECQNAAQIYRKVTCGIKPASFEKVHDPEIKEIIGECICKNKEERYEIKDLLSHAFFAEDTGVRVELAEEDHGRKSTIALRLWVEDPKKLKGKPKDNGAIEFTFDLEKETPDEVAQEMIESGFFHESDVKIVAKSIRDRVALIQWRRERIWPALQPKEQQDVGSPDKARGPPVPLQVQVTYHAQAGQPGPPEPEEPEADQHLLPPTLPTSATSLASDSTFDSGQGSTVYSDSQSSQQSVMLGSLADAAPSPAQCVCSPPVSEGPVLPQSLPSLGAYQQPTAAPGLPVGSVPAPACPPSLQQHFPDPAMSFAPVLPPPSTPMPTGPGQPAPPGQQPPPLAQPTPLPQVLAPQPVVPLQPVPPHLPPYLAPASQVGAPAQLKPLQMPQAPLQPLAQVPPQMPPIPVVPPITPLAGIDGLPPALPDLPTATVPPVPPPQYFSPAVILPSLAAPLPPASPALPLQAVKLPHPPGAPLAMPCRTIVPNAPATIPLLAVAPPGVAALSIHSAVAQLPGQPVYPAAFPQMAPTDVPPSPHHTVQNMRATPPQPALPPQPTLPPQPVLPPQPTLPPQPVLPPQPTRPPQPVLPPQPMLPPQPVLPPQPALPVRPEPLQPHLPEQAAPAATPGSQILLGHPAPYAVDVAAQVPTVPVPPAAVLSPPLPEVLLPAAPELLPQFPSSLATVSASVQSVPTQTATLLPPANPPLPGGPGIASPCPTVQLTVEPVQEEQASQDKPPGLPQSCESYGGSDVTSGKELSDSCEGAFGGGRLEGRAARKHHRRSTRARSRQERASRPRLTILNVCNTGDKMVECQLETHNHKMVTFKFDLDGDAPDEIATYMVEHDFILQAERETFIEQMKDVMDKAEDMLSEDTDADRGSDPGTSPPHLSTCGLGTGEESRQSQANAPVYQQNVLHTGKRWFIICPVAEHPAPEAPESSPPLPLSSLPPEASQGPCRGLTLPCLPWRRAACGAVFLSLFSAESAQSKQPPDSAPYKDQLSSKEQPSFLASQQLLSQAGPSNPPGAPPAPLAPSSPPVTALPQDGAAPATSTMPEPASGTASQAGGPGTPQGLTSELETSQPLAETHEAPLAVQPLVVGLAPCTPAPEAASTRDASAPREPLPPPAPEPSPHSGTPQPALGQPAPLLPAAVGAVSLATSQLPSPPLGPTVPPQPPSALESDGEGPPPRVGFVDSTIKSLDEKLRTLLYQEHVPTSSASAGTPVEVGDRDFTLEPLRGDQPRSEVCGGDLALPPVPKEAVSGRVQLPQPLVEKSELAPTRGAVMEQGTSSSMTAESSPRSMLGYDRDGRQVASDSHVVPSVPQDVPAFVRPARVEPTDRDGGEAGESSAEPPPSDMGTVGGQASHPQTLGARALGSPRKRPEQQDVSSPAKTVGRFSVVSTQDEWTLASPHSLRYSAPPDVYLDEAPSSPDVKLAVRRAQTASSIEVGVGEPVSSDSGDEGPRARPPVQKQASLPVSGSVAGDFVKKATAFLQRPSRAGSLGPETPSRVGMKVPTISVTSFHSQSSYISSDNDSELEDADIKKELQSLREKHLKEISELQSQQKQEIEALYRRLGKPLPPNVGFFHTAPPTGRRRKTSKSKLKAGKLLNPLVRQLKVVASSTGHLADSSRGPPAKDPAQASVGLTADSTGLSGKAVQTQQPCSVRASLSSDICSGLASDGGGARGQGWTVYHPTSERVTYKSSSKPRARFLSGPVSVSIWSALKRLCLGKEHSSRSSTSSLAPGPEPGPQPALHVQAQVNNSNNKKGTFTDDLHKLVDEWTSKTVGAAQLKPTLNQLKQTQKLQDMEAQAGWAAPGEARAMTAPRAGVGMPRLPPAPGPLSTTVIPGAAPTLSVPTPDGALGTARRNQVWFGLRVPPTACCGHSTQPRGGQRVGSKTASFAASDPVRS
T21 sequence (Q9Y6M4 whole entry): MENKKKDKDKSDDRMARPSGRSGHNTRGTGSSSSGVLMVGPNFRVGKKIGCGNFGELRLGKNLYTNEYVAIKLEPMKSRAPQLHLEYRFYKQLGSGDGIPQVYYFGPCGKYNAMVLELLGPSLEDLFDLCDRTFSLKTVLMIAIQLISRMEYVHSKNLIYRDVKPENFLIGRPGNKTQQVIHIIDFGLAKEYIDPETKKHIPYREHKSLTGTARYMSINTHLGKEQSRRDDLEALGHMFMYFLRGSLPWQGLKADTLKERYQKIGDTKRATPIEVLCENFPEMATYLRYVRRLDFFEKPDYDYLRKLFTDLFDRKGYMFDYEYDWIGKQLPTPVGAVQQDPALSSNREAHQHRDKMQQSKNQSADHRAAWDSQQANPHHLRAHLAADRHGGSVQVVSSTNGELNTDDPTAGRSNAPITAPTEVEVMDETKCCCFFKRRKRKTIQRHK
T2 sequence (P49137 whole entry): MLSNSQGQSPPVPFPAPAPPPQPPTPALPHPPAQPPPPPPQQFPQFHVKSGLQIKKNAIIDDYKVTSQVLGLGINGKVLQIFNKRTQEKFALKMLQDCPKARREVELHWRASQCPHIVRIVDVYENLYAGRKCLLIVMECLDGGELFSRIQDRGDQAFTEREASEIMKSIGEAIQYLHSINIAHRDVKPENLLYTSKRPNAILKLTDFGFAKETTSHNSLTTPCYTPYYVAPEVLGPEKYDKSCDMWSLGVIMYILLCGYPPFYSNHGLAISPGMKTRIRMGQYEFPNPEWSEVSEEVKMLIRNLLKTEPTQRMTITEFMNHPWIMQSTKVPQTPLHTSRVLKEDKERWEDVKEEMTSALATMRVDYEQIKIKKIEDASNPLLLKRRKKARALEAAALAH

- Avg POC [1]: 99 POC
- Avg POC [2]: 143.5 POC
- Avg POC [3]: 110.5 POC
- Avg POC [4]: 103.5 POC
- Avg POC [5]: 108 POC
- Avg POC [6]: 111 POC
- Avg POC [7]: 81.5 POC
- Avg POC [8]: 147.5 POC
- Avg POC [9]: 108 POC
- Avg POC [10]: 116 POC
- Avg POC [11]: 92 POC
- Avg POC [12]: 91 POC
- Avg POC [13]: 134.5 POC
- Avg POC [14]: 95.5 POC
- Avg POC [15]: 104 POC
- Avg POC [16]: 143.5 POC
- Avg POC [17]: 116 POC
- Avg POC [18]: 132.5 POC
- Avg POC [19]: 125.5 POC
- Avg POC [20]: 132.5 POC
- Avg POC [21]: 114 POC
- Avg POC [22]: 119.5 POC
- Avg POC [23]: 133 POC
- Avg POC [24]: 122.5 POC
- Avg POC [25]: 115 POC
- Avg POC [26]: 119.5 POC
- Avg POC [27]: 139.5 POC
- Avg POC [28]: 115.5 POC
- Avg POC [29]: 103.5 POC
- Avg POC [30]: 118.5 POC
- Avg POC [31]: 136 POC
- Avg POC [32]: 91.5 POC
- Avg POC [33]: 121.5 POC
- Avg POC [34]: 132 POC
- Avg POC [35]: 145 POC
- Avg POC [36]: 107 POC
- Avg POC [37]: 100.5 POC
- Avg POC [38]: 98 POC
- Avg POC [39]: 96.5 POC
- Avg POC [40]: 157.5 POC
- Avg POC [41]: 131 POC
Compound: Cc1c(-c2cnn(C)c2)nn(-c2ccccc2)c1NC(=O)Nc1sc(C(F)(F)F)nc1-c1ccccc1 [Example 2, 1-(1′,4-dimethyl-1-phenyl-1H,1′H-[3,4′-bipyrazol]-5-yl)-3-(4-phenyl-2-(trifluoromethyl)thiazol-5-yl)urea]
